Results on one compound are retold here after patent US10946030B2, “Formulations of deoxycholic acid and salts thereof” (ALLERGAN SALES, LLC, priority 2011, dated 2021).

Data set [1] in a line: Concentration dependent precipitation from aqueous sodium deoxycholate solution after storage, rated by visual inspection. It is filed as physicochemical. To be noted: 1 week storage; for Precipitation Rating: scale 0 = clear solution, 10 = substantial precipitation. On the procedure:
Solutions of sodium deoxycholate at different concentration were evaluated for precipitate formation after 1 week of storage. […] By visual inspection of FIGS. 1-4, the amount of precipitation can be rated as tabulated below.

Data set [2] can be described thus: pH measurement of sodium deoxycholate solutions. It is filed as physicochemical. From the text:
The inverse aqueous solubility of sodium deoxycholate, where a more dilute solution (0.5% or 1%) provides more precipitation than a more concentrated solution (2%), is a surprising observation and also evidences that the precipitation phenomena is not directly related to pH, because the pH of the solutions were substantially the same again, especially for the 1% and 2% solutions.

Entries after “also recorded” stand apart in the source; their conditions may differ.

On to `C[C@H](CCC(=O)[O-])[C@H]1CCC2C3CC[C@@H]4C[C@H](O)CC[C@]4(C)C3C[C@H](O)[C@@]21C.[Na+]` (stereo partly drawn) [Sodium Deoxycholate, sodium (4R)-4-((3R,5R,10S,12S,13R,17R)-3,12-dihydroxy-10,13-dimethylhexadecahydro-1H-cyclopenta[a]phenanthren-17-yl)pentanoate], for which the “Precipitate observed (Comment)” value was “Significant amounts of precipitate visible” in data set [1] (0.5% w/v in water + 0.9% w/v benzyl alcohol, FIG. 2); “a significant amount of precipitate is formed; also recorded: significant amounts of precipitate” in data set [1] (0.5% w/v in water + 0.9% w/v benzyl alcohol, FIG. 2, listed as sodium deoxycholate); “Significant amounts of precipitate visible” in data set [1] (1% w/v in water + 0.9% w/v benzyl alcohol, FIG. 3); “a significant amount of precipitate is formed; also recorded: significant amounts of precipitate, albeit less than that of 0.5% w/v sodium deoxycholate” in data set [1] (1% w/v in water + 0.9% w/v benzyl alcohol, FIG. 3, listed as sodium deoxycholate); “Precipitation visible to the naked eye but” in data set [1] (2% w/v in water + 0.9% w/v benzyl alcohol, FIG. 4); “significant amounts of precipitate but substantially less than that observed in FIGS. 2 and 3” in data set [1] (2% w/v in water + 0.9% w/v benzyl alcohol, FIG. 4, listed as sodium deoxycholate). Also, the “Precipitation Rating” value in data set [1] (0.5% w/v in water + 0.9% w/v benzyl alcohol) is on record as 10; in data set [1] (1.0% w/v in water + 0.9% w/v benzyl alcohol), 7; in data set [1] (2.0% w/v in water + 0.9% w/v benzyl alcohol), 2. For the same compound, the pH is 7.77 in data set [2] (0.5% w/v solution, reading 1, 24.7 °C); 7.71 in data set [2] (0.5% w/v solution, reading 2, 24.5 °C); 7.93 in data set [2] (1% w/v solution, reading 1, 24.6 °C); 7.97 in data set [2] (1% w/v solution, reading 2, 24.5 °C); 8.07 in data set [2] (2% w/v solution, reading 1, 24.9 °C); 8.06 in data set [2] (2% w/v solution, reading 2, 24.7 °C).
